Reference: patent US10155727B2, “Pyrazoles” (Janssen Pharmaceuticals, Inc., priority 2014, dated 2018)
Where a name gives a salt, the structure may show the parent alone. Read-outs that look alike come from different tables or passages of the source.

Assays:
rat NR1/NR2B receptor = rat NR1/NR2B receptor (Rattus norvegicus (Rat), UniProt P35439+Q00960); experiment: NR2B binding assay: inhibition of specific [3H]-Ifenprodil binding to the rat NR1/NR2B receptor; details: for inhibition at 1 µM: read-out: % INH @ 1 μM; for inhibition at 10 µM: 10 μM test compound, read-out: % INH @ 10 μM
Procedure: Biological Assays Inhibition of Specific Binding to the Rat NR1/NR2B Receptor
Male Wistar rats (180 to 200 g) were killed by suffocation in a CO2 chamber for two minutes. Whole brains without cerebellum were removed and dissected on ice, placed into closed vials and stored at −70° C.
Membrane fractions were prepared and tested using standard techniques. At the time of the assay, 1 g of the brains was placed into 25 ml of 50 mM Tris/10 mM EDTA buffer, pH 7.1, (25 vol. per g of original tissue) and homogenized for 30 sec at 20000 rpm with an Ultraturrax T25 (Jahnke & Kunkel, IKA-Labortechnik, Staufen, Germany).
The supernatant was discarded and the pellet was homogenized on ice for 30 sec at 20000 rpm with an Ultraturrax and again centrifuged at 48000 g for 30 minutes at 4° C. The resultant pellet was resuspended in 25 ml of 50 mM Tris/10 mM EDTA buffer, homogenized for 30 sec with an Ultraturrax, aliquoted, frozen at −70° C. and stored until use.
After thawing on the day of the assay, a 5 ml membrane aliquot was centrifuged at 48000 g for 30 min at 4° C. The pellet was resuspended in 5 ml of 5 mM Tris/1 mM EDTA buffer, pH 7.4, homogenized for 30 sec at 20000 rpm with an Ultraturrax and centrifuged at 48000 g for 30 min at 4° C. This was repeated twice. The final pellet was homogenized in 5 ml of 5 mM Tris/1 mM EDTA buffer at 4° C. with an Ultraturrax and used for the Ifenprodil-binding assay as described in the following.
Nonspecific binding was estimated in the presence of […] CP101.606. The samples were incubated for 60 min. at 4° C.
The incubation was terminated by filtration of the membrane preparations using Filtermat B (Pharmacia, Uppsala Sweden) and a Micro Cell Harvester (Skatron, Lier, Norway). The Filtermat B had been presoaked with 1% polyethylene imine and carefully washed with 50 mM Tris/HCl-buffer pH 7.7 after the filtration to separate free and bound radioactivity.
The optimal amount of membrane preparation in the assay was determined and optimized for each membrane preparation separately before the test.
For pipetting of the incubation mixture the robot Biomek2000 (Fa. Beckman) was used.
For determination of IC50 values the Hill-plot, 2-parameter-model was used.

hERG receptor = hERG receptor (Homo sapiens (Human), UniProt Q12809); experiment: HERGBD: inhibition of specific [3H]-Dofetilide binding to the hERG receptor
Procedure: Inhibition of Specific Binding to the hERG—Receptor (HERGBD)
A HEK cell line with stable transfected human ERG receptor was used for the assay. The cells were grown adherently and maintained in DULBECCOS' MEM medium with 10% FBS, 1% non-essential amino acids, 1% Penicillin/Streptomycin and 400 μg/ml G418 (Calbiochem).
For binding assays and membrane preparations the cell culture medium was removed, cells were washed with PBS. Crude membranes for radioligand binding experiments were prepared by scraping the cells off the dishes in ice cold 20 mM HEPES/0.1 mM KCl/pH 7.2. The cell suspension was homogenized on ice (Ultra turrax, 3×20 sec.) and the homogenate was spun for 10 min (1° C., 1000 g, OPTIMA, SW28, 2800 U/min). The supernatant was than centrifuged for 40 min at 100000 g (1° C., OPTIMA, SW28, 23000 U/min). The membrane pellet was re-suspended in 20 mM HEPES/0.1 mM KCl pH 7.2, frozen and stored at −80° C.
After thawing on the day of the assay, the membrane suspension was diluted further with 20 mM HEPES/0.1 mM KCl/pH 7.2.
The incubation mixture of 200 μl contained 1.5 nmol/l 3H-Dofetilide, optimized amount of membrane preparation, 20 mM HEPES/0.1 mM KCl/(pH 7.2) and inhibitor in 1% DMSO. Nonspecific binding was estimated in the presence of […] Dofetilide. The samples were incubated for 90 min. at RT.
Binding was terminated by filtration of the incubated membrane preparations using Filtermat B (Pharmacia, Uppsala Sweden) and a Micro Cell Harvester (Skatron, Lier, Norway). The Filtermat B had been presoaked with 1% polyethylen imine and carefully washed with 0.05 M Tris/HCl-buffer pH=7.7 after the filtration to separate free and bound radioactivity. The filters were counted in a scintillation counter (Betaplate 1205, Berthold, Wildbad, Germany) in order to determine the specific binding of [^3H]-Dofetilide.
The optimal amount of membrane preparation in the assay was determined and optimized for each membrane preparation separately in front of using the membranes in compound testing.
For pipetting of the incubation mixture we routinely use the robot Biomek2000 (Fa. Beckman).

[1] = [3H]-Ifenprodil binding, rat brain membranes
[2] = 1 μM test compound, [3H]-Ifenprodil binding, rat brain membranes
[3] = [3H]-Dofetilide binding, membranes of HEK cells with human ERG receptor, read-out: IC50

hERG receptor, sequence (Q12809 whole entry): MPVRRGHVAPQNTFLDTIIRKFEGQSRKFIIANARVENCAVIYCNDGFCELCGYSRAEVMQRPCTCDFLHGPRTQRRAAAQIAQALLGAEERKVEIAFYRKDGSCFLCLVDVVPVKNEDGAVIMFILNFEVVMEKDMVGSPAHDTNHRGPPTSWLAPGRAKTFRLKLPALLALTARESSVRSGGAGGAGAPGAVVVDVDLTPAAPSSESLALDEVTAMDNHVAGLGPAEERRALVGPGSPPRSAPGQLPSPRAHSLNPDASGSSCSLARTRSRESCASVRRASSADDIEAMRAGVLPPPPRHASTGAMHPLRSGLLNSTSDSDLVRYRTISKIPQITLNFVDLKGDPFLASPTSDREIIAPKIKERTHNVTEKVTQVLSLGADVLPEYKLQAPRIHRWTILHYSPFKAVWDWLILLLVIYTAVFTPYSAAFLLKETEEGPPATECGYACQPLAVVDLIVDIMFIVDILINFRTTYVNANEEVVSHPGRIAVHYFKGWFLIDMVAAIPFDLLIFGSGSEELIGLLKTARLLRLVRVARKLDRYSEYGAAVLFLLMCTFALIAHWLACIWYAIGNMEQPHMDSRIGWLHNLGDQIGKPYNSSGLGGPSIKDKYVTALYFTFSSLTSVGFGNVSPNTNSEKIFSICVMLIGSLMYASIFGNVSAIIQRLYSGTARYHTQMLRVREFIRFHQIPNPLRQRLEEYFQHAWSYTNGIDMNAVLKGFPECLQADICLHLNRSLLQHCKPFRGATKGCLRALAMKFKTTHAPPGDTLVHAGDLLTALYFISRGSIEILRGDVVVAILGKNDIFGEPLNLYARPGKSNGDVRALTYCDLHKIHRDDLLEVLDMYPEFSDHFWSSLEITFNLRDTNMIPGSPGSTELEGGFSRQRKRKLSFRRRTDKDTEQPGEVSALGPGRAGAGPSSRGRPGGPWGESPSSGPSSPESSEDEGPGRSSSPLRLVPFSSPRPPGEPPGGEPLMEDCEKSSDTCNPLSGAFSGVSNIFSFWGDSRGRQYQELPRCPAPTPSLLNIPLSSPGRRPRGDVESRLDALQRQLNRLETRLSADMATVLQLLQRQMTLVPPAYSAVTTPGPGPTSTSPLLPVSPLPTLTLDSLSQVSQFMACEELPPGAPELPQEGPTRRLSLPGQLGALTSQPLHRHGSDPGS
rat NR1/NR2B receptor, sequence (Q00960 27-1482, other chains not shown): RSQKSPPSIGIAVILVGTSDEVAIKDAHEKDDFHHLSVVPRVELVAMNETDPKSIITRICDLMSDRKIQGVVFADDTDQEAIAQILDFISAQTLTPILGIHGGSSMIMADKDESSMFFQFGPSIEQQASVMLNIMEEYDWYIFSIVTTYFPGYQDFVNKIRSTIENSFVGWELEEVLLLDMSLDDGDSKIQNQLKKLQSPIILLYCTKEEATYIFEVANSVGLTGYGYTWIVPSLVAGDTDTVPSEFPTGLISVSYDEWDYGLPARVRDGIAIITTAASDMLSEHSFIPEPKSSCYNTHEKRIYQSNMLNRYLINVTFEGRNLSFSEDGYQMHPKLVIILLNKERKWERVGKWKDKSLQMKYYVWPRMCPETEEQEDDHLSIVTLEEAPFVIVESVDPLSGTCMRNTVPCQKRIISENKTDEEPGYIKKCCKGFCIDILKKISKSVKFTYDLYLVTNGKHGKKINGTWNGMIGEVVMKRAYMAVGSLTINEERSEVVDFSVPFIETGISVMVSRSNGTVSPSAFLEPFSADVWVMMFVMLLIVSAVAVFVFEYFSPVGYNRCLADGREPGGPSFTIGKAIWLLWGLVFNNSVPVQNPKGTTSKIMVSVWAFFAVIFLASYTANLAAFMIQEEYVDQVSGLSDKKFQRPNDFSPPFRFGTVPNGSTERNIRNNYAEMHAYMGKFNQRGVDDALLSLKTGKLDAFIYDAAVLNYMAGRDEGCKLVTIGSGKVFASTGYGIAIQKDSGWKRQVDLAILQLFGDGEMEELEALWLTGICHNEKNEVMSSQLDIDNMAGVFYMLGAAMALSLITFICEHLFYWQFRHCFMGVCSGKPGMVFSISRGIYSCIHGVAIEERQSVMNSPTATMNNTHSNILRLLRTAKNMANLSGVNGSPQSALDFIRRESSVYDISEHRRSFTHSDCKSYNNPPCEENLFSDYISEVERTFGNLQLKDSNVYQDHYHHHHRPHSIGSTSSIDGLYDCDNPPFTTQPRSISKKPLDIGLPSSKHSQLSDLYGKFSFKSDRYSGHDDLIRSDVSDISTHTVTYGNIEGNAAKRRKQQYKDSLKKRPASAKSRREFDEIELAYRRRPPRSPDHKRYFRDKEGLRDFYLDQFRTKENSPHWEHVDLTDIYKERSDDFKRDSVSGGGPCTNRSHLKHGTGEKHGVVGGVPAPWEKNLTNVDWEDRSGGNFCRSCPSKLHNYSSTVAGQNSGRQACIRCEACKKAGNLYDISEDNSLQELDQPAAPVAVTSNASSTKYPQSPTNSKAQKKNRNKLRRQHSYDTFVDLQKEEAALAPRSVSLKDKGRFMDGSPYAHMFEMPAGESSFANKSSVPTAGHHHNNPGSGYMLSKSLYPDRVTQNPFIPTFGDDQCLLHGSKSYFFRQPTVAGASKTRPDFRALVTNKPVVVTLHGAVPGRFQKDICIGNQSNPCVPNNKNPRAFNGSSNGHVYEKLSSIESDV

With `CCn1ccc(Cn2cc(-c3ccc(F)c(C(F)F)c3)cn2)n1` [Example 38, 3-[[4-[3-(Difluoromethyl)-4-fluoro-phenyl]pyrazol-1-yl]methyl]-1-ethyl-pyrazole] the IC50 (rat NR1/NR2B receptor; [1]) was 0.443 µM and the IC50 (hERG receptor) was > 100 µM.
`Cn1nccc1Cn1cc(-c2ccccc2)cn1` [Example 87, 1-Methyl-5-[(4-phenylpyrazol-1-yl)methyl]pyrazole; succinic acid] was tested, and the inhibition at 1 µM (rat NR1/NR2B receptor; [2]) was -3.3%, the inhibition at 10 µM (rat NR1/NR2B receptor; [1]) was 28.8% and the IC50 (hERG receptor; [3]) was > 100 µM.
In the case of `Cn1ccc(Cn2cc(-c3ccc(Cl)c(C(F)(F)F)c3)cn2)n1` [Example 30, 3-[[4-[4-chloro-3-(trifluoromethyl)phenyl]pyrazol-1-yl]methyl]-1-methyl-pyrazole], the IC50 (rat NR1/NR2B receptor; [1]) is reported as 1.01 µM and the IC50 (hERG receptor) is reported as 3.47 µM.
Work on `CCn1cc(CCn2cc(-c3ccc(Cl)c(OC(F)F)c3)cn2)cn1` [Example 10, 4-[4-Chloro-3-(difluoromethoxy)phenyl]-1-[2-(1-ethylpyrazol-4-yl)ethyl]pyrazole] yielded an IC50 (rat NR1/NR2B receptor; [1]) of 0.25 µM and an IC50 (hERG receptor) of 18.4 µM.
With `CCn1ccc(Cn2cc(-c3ccc(Cl)c(OC(F)F)c3)cn2)n1` [Example 8, 3-[[4-[4-Chloro-3-(difluoromethoxy)phenyl]pyrazol-1-yl]methyl]-1-ethyl-pyrazole] the IC50 (rat NR1/NR2B receptor; [1]) was 0.281 µM and the IC50 (hERG receptor) was 41 µM.
`CC(F)(F)c1cccc(-c2cnn(Cc3cc[nH]n3)c2)c1` [Example 93, 3-[[4-(3-(1,1-difluoroethyl)-phenyl)pyrazol-1-yl]methyl]-1H-pyrazole Maleate] showed an IC50 (rat NR1/NR2B receptor; [1]) of 0.0252 µM and an IC50 (hERG receptor; [3]) of 129 µM.
For `Fc1ccc(-c2cnn(Cc3cc(Cn4ccc(-c5ccc(F)c(C(F)F)c5)n4)n[nH]3)c2)cc1C(F)F` [Example 103, 3-(3-(difluoromethyl)-4-fluorophenyl)-1-((5-((4-(3-(difluoromethyl)-4-fluorophenyl)-1H-pyrazol-1-yl)methyl)-1H-pyrazol-3-yl)methyl)-1H-pyrazole], the inhibition at 1 µM (rat NR1/NR2B receptor; [2]) was 15.5% and the IC50 (hERG receptor) was > 10 µM.
With `Cn1ccc(Cn2cc(-c3ccc(F)c(Cl)c3)cn2)n1` [Example 61, 3-[[4-(3-chloro-4-fluoro-phenyl)pyrazol-1-yl]methyl]-1-methyl-pyrazole Succinate] the IC50 (rat NR1/NR2B receptor; [1]) was 1.38 µM and the IC50 (hERG receptor) was 24.7 µM.
`Cn1ccc(Cn2cc(-c3ccc(Cl)cc3Cl)cn2)n1` [Example 66, 3-[[4-(2,4-dichlorophenyl)pyrazol-1-yl]methyl]-1-methyl-pyrazole Succinate] showed an IC50 (rat NR1/NR2B receptor; [1]) of 5.21 µM and an IC50 (hERG receptor) of 8.86 µM.
In the case of `FC(F)Oc1cc(-c2cnn(Cc3ccn(C4CCCC4)n3)c2)ccc1Cl` [Example 12, 3-[[4-[4-Chloro-3-(difluoromethoxy)phenyl]pyrazol-1-yl]methyl]-1-cyclopentyl-pyrazole], the IC50 (rat NR1/NR2B receptor; [1]) is reported as 0.28 µM and the IC50 (hERG receptor) is reported as 8.06 µM.
`CCC(CC)n1ccc(Cn2cc(-c3ccc(Cl)c(OC(F)F)c3)cn2)n1` [Example 11, 3-[[4-[4-Chloro-3-(difluoromethoxy)phenyl]pyrazol-1-yl]methyl]-1-(1-ethylpropyl)pyrazole] gave an inhibition at 1 µM (rat NR1/NR2B receptor; [2]) of 2.7% and an IC50 (hERG receptor; [3]) of 12.7 µM.
Molecule `FC(F)Oc1cccc(-c2cnn(Cc3cc[nH]n3)c2)c1` [Example 94, 3-[[4-(3-(difluoromethoxy)-phenyl)pyrazol-1-yl]methyl]-1H-pyrazole Maleate] has an IC50 (rat NR1/NR2B receptor; [1]) of 0.279 µM and an IC50 (hERG receptor; [3]) of 120 µM.
`Cc1cc(-c2cnn(Cc3ccn(C)n3)c2)ccc1Cl` [Example 58, 3-[[4-(4-chloro-3-methyl-phenyl)pyrazol-1-yl]methyl]-1-methyl-pyrazole Succinate] gave an IC50 (rat NR1/NR2B receptor; [1]) of 0.668 µM and an IC50 (hERG receptor; [3]) of 12.6 µM.
Molecule `Cc1cc(Cn2cc(-c3ccc(Cl)c(C(F)(F)F)c3)cn2)n(C)n1` [Example 29, 5-[[4-[4-chloro-3-(trifluoromethyl)phenyl]pyrazol-1-yl]methyl]-1,3-dimethyl-pyrazole Succinate] has an IC50 (rat NR1/NR2B receptor; [1]) of 2.54 µM and an IC50 (hERG receptor) of 17.9 µM.
With `COc1cc(F)ccc1-c1cnn(Cc2cc(C)nn2C)c1` [Example 68, 5-[[4-(4-fluoro-2-methoxy-phenyl)pyrazol-1-yl]methyl]-1,3-dimethyl-pyrazole Succinate] the inhibition at 10 µM (rat NR1/NR2B receptor; [1]) was 26.3%, the inhibition at 1 µM (rat NR1/NR2B receptor) was 8.7% and the IC50 (hERG receptor; [3]) was 93.6 µM.
For `Cn1nccc1-n1cc(-c2ccc(Cl)c(Cl)c2)cn1` [Example 100, 4-(3,4-dichlorophenyl)-2′-methyl-2′H-1,3′-bipyrazole], the IC50 (rat NR1/NR2B receptor; [1]) was 3.17 µM and the IC50 (hERG receptor; [3]) was 60.3 µM.
For `Cc1cc(Cn2cc(-c3ccc(Cl)c(C(F)F)c3)cn2)n(C)n1` [Example 25, 5-[[4-[4-Chloro-3-(difluoromethyl)phenyl]pyrazol-1-yl]methyl]-1,3-dimethyl-pyrazole], the IC50 (rat NR1/NR2B receptor; [1]) was 0.98 µM and the IC50 (hERG receptor; [3]) was 49.6 µM.
`Cc1cc(-c2cnn(Cc3cc[nH]n3)c2)ccc1F` [Example 56, 4-(4-fluoro-3-methyl-phenyl)-1-(1H-pyrazol-3-ylmethyl)pyrazole] showed an IC50 (rat NR1/NR2B receptor; [1]) of 0.0787 µM and an IC50 (hERG receptor) of 93.8 µM.
`Cc1cc(Cn2cc(-c3ccc(Cl)c(OC(F)F)c3)cn2)[nH]n1` [Example 13, 4-[4-Chloro-3-(difluoromethoxy)phenyl]-1-[(3-methyl-1H-pyrazol-5-yl)methyl]pyrazole] showed an IC50 (rat NR1/NR2B receptor; [1]) of 0.0221 µM and an IC50 (hERG receptor) of 37 µM.
Work on `Cc1cc(Cn2cc(-c3ccccc3)cn2)n(C)n1` [Example 86, 1,3-Dimethyl-5-[(4-phenylpyrazol-1-yl)methyl]pyrazole] yielded an inhibition at 1 µM (rat NR1/NR2B receptor; [2]) of 3.8% and an inhibition at 10 µM (rat NR1/NR2B receptor; [1]) of 10.9%.
Molecule `Cc1cc(Cn2cc(-c3cc(F)cc(F)c3)cn2)n(C)n1` [Example 83, 5-[[4-(3,5-difluorophenyl)pyrazol-1-yl]methyl]-1,3-dimethyl-pyrazole] has an IC50 (rat NR1/NR2B receptor; [1]) of 6.02 µM.
`Cc1cc(Cn2cc(-c3ccccn3)cn2)n(C)n1` [Example 105, 2-(1-((1,3-dimethyl-1H-pyrazol-5-yl)methyl)-1H-pyrazol-4-yl)pyridine Succinate] was tested, and the inhibition at 1 µM (rat NR1/NR2B receptor; [2]) was -1.3% and the inhibition at 10 µM (rat NR1/NR2B receptor; [1]) was 4.4%.
For `Cn1ccc(Cn2cc(-c3ccccc3)cn2)n1` [Example 85, 1-methyl-3-[(4-phenylpyrazol-1-yl)methyl]pyrazole], the inhibition at 1 µM (rat NR1/NR2B receptor; [2]) was 22.5% and the inhibition at 10 µM (rat NR1/NR2B receptor; [1]) was 25.3%.
In the case of `Cc1cc(Cn2cc(-c3ccc(F)c(C)c3)cn2)n(C)n1` [Example 54, 5-[[4-(4-fluoro-3-methyl-phenyl)pyrazol-1-yl]methyl]-1,3-dimethyl-pyrazole Succinate], the IC50 (hERG receptor; [3]) is reported as > 100 µM.
With `Cn1ccc(Cn2cc(-c3ccc(Br)cc3)cn2)n1` [Example 79, 3-[[4-(4-bromophenyl)pyrazol-1-yl]methyl]-1-methyl-pyrazole] the IC50 (rat NR1/NR2B receptor; [1]) was 4.72 µM.
Molecule `Cn1ccc(Cn2cc(-c3cc(F)cc(F)c3)cn2)n1` [Example 84, 3-[[4-(3,5-difluorophenyl)pyrazol-1-yl]methyl]-1-methyl-pyrazole] has an inhibition at 1 µM (rat NR1/NR2B receptor; [2]) of 14.6% and an inhibition at 10 µM (rat NR1/NR2B receptor; [1]) of 45.7%.
With `Cc1ccc(-c2cnn(Cc3ccn(C)n3)c2)cc1F` [Example 53, 3-[[4-(3-fluoro-4-methyl-phenyl)pyrazol-1-yl]methyl]-1-methyl-pyrazole Succinate] the IC50 (rat NR1/NR2B receptor; [1]) was 3.84 µM.
`Cn1ccc(Cn2cc(-c3cccc(Br)c3)cn2)n1` [Example 82, 3-[[4-(3-bromophenyl)pyrazol-1-yl]methyl]-1-methyl-pyrazole Succinate] gave an IC50 (rat NR1/NR2B receptor; [1]) of 2.62 µM.
